Reference: the NIST ThermoML archive (doi:10.1016/j.jct.2008.10.002)
± gives the expanded uncertainty stated by the source.

Experiments:
[1] = xn = mol fraction of the nth substance listed; details: 101.3 kPa, Liquid, Vibrating tube method
[2] = molar heat capacity at constant pressure; xn = mol fraction of the nth substance listed; details: 101.3 kPa, Liquid, Small sample (50 mg) DSC
[3] = excess molar enthalpy (molar enthalpy of mixing); xn = mol fraction of the nth substance listed; details: 303.15 K, 101.3 kPa, Liquid

CCOS(=O)(=O)[O-].CCn1cc[n+](C)c1 [1-ethyl-3-methylimidazolium ethyl sulfate] + O
Details	mass density, [1] [kg/m3]	molar heat capacity at constant pressure, [2] [J/K/mol]
293.15 K, x1 = 0.0477	1084.8 ± 0.4	92.6 ± 1.4
293.15 K, x1 = 0.1033	1138.7 ± 0.4	109.8 ± 1.7
293.15 K, x1 = 0.2048	1184.3 ± 0.4	140.4 ± 2.2
293.15 K, x1 = 0.2943	1203.3 ± 0.4	167.1 ± 2.6
293.15 K, x1 = 0.3847	1214.7 ± 0.4	194.3 ± 3
293.15 K, x1 = 0.4774	1222.5 ± 0.4	222.7 ± 3.5
293.15 K, x1 = 0.5797	1228.5 ± 0.4	254.6 ± 3.9
293.15 K, x1 = 0.6632	1232 ± 0.4	281.3 ± 4.4
293.15 K, x1 = 0.8092	1236.6 ± 0.4	328.9 ± 5.1
293.15 K, x1 = 0.907	1238.9 ± 0.4	360.9 ± 5.6
298.15 K, x1 = 0.0477	1082.3 ± 0.4	92.9 ± 1.4
298.15 K, x1 = 0.1033	1135.4 ± 0.4	110.5 ± 1.7
298.15 K, x1 = 0.2048	1180.8 ± 0.4	141.4 ± 2.2
298.15 K, x1 = 0.2943	1199.8 ± 0.4	168.3 ± 2.6
298.15 K, x1 = 0.3847	1211.3 ± 0.4	195.7 ± 3
298.15 K, x1 = 0.4774	1219.1 ± 0.4	224.2 ± 3.5
298.15 K, x1 = 0.5797	1225 ± 0.4	256.2 ± 4
298.15 K, x1 = 0.6632	1228.6 ± 0.4	283.1 ± 4.4
298.15 K, x1 = 0.8092	1233.2 ± 0.4	330.9 ± 5.1
298.15 K, x1 = 0.907	1235.5 ± 0.4	363.1 ± 5.6
303.15 K, x1 = 0.0477	1079.6 ± 0.4	93.3 ± 1.4
303.15 K, x1 = 0.1033	1132.1 ± 0.4	111.2 ± 1.7
303.15 K, x1 = 0.2048	1177.2 ± 0.4	142.6 ± 2.2
303.15 K, x1 = 0.2943	1196.3 ± 0.4	169.7 ± 2.6
303.15 K, x1 = 0.3847	1207.8 ± 0.4	197.1 ± 3.1
303.15 K, x1 = 0.4774	1215.6 ± 0.4	225.8 ± 3.5
303.15 K, x1 = 0.5797	1221.6 ± 0.4	258 ± 4
303.15 K, x1 = 0.6632	1225.2 ± 0.4	285 ± 4.4
303.15 K, x1 = 0.8092	1229.8 ± 0.4	333 ± 5.2
303.15 K, x1 = 0.907	1232.1 ± 0.4	365.3 ± 5.7
308.15 K, x1 = 0.0477	1076.9 ± 0.4	93.6 ± 1.5
308.15 K, x1 = 0.1033	1128.7 ± 0.4	111.9 ± 1.7
308.15 K, x1 = 0.2048	1173.6 ± 0.4	143.7 ± 2.2
308.15 K, x1 = 0.2943	1192.7 ± 0.4	171 ± 2.7
308.15 K, x1 = 0.3847	1204.3 ± 0.4	198.6 ± 3.1
308.15 K, x1 = 0.4774	1212.2 ± 0.4	227.5 ± 3.5
308.15 K, x1 = 0.5797	1218.2 ± 0.4	259.9 ± 4
308.15 K, x1 = 0.6632	1221.8 ± 0.4	287.1 ± 4.4
308.15 K, x1 = 0.8092	1226.4 ± 0.4	335.3 ± 5.2
308.15 K, x1 = 0.907	1228.7 ± 0.4	367.7 ± 5.7
313.15 K, x1 = 0.0477	1073.9 ± 0.4	93.9 ± 1.5
313.15 K, x1 = 0.1033	1125.3 ± 0.4	112.7 ± 1.7
313.15 K, x1 = 0.2048	1170 ± 0.4	144.9 ± 2.2
313.15 K, x1 = 0.2943	1189.2 ± 0.4	172.4 ± 2.7
313.15 K, x1 = 0.3847	1200.8 ± 0.4	200.3 ± 3.1
313.15 K, x1 = 0.4774	1208.7 ± 0.4	229.3 ± 3.6
313.15 K, x1 = 0.5797	1214.8 ± 0.4	261.8 ± 4.1
313.15 K, x1 = 0.6632	1218.4 ± 0.4	289.2 ± 4.5
313.15 K, x1 = 0.8092	1223 ± 0.4	337.7 ± 5.2
313.15 K, x1 = 0.907	1225.3 ± 0.4	370.3 ± 5.7
318.15 K, x1 = 0.0477	1071 ± 0.4	94.4 ± 1.5
318.15 K, x1 = 0.1033	1121.8 ± 0.4	113.6 ± 1.8
318.15 K, x1 = 0.2048	1166.4 ± 0.4	146.2 ± 2.3
318.15 K, x1 = 0.2943	1185.6 ± 0.4	173.9 ± 2.7
318.15 K, x1 = 0.3847	1197.3 ± 0.4	202 ± 3.1
318.15 K, x1 = 0.4774	1205.3 ± 0.4	231.2 ± 3.6
318.15 K, x1 = 0.5797	1211.3 ± 0.4	263.9 ± 4.1
318.15 K, x1 = 0.6632	1215 ± 0.4	291.6 ± 4.5
318.15 K, x1 = 0.8092	1219.6 ± 0.4	340.3 ± 5.3
318.15 K, x1 = 0.907	1221.9 ± 0.4	373 ± 5.8

[3]
Details	excess molar enthalpy [kJ/mol]
x1 = 0.0504	-0.482 ± 0.012
x1 = 0.0997	-0.767 ± 0.017
x1 = 0.1468	-0.915 ± 0.02
x1 = 0.2004	-0.986 ± 0.022
x1 = 0.2921	-0.968 ± 0.021
x1 = 0.3935	-0.853 ± 0.019
x1 = 0.4806	-0.794 ± 0.018
x1 = 0.5727	-0.655 ± 0.015
x1 = 0.6687	-0.52 ± 0.012
x1 = 0.8212	-0.285 ± 0.008

CCn1cc[n+](C)c1.O=S(=O)([O-])C(F)(F)F [1-ethyl-3-methylimidazolium trifluoromethanesulfonate] + O
Details	mass density, [1] [kg/m3]	molar heat capacity at constant pressure, [2] [J/K/mol]
293.15 K, x1 = 0.0186	1063.6 ± 0.6	83.2 ± 1.3
293.15 K, x1 = 0.0522	1142.6 ± 0.5	94.2 ± 1.5
293.15 K, x1 = 0.0995	1208.9 ± 0.5	108.1 ± 1.7
293.15 K, x1 = 0.2037	1282.4 ± 0.5	138 ± 2.1
293.15 K, x1 = 0.2952	1315.7 ± 0.5	163.5 ± 2.5
293.15 K, x1 = 0.3868	1336.6 ± 0.5	188.5 ± 2.9
293.15 K, x1 = 0.4761	1350.7 ± 0.5	213.2 ± 3.3
293.15 K, x1 = 0.5771	1362.4 ± 0.5	240.9 ± 3.7
293.15 K, x1 = 0.6617	1370 ± 0.5	264 ± 4.1
293.15 K, x1 = 0.8398	1381.8 ± 0.6	314.4 ± 4.9
293.15 K, x1 = 0.8646	1383.1 ± 0.6	321.6 ± 5
298.15 K, x1 = 0.0186	1061.7 ± 0.6	83.1 ± 1.3
298.15 K, x1 = 0.0522	1139.6 ± 0.5	94.3 ± 1.5
298.15 K, x1 = 0.0995	1205.3 ± 0.5	108.6 ± 1.7
298.15 K, x1 = 0.2037	1278.3 ± 0.5	138.9 ± 2.2
298.15 K, x1 = 0.2952	1311.5 ± 0.5	164.5 ± 2.5
298.15 K, x1 = 0.3868	1332.4 ± 0.5	189.7 ± 2.9
298.15 K, x1 = 0.4761	1346.4 ± 0.5	214.5 ± 3.3
298.15 K, x1 = 0.5771	1358.1 ± 0.5	242.3 ± 3.8
298.15 K, x1 = 0.6617	1365.7 ± 0.5	265.6 ± 4.1
298.15 K, x1 = 0.8398	1377.5 ± 0.6	316.3 ± 4.9
298.15 K, x1 = 0.8646	1378.8 ± 0.6	323.5 ± 5
303.15 K, x1 = 0.0186	1059.5 ± 0.6	83.2 ± 1.3
303.15 K, x1 = 0.0522	1136.5 ± 0.5	94.6 ± 1.5
303.15 K, x1 = 0.0995	1201.6 ± 0.4	109.2 ± 1.7
303.15 K, x1 = 0.2037	1274.2 ± 0.5	139.9 ± 2.2
303.15 K, x1 = 0.2952	1307.2 ± 0.5	165.6 ± 2.6
303.15 K, x1 = 0.3868	1328.1 ± 0.5	190.9 ± 3
303.15 K, x1 = 0.4761	1342.2 ± 0.5	215.8 ± 3.3
303.15 K, x1 = 0.5771	1353.9 ± 0.5	243.8 ± 3.8
303.15 K, x1 = 0.6617	1361.5 ± 0.5	267.3 ± 4.1
303.15 K, x1 = 0.8398	1373.3 ± 0.6	318.2 ± 4.9
303.15 K, x1 = 0.8646	1374.6 ± 0.6	325.5 ± 5
308.15 K, x1 = 0.0186	1057.2 ± 0.6	83.1 ± 1.3
308.15 K, x1 = 0.0522	1133.3 ± 0.5	94.7 ± 1.5
308.15 K, x1 = 0.0995	1197.8 ± 0.4	109.6 ± 1.7
308.15 K, x1 = 0.2037	1270 ± 0.5	140.7 ± 2.2
308.15 K, x1 = 0.2952	1303 ± 0.5	166.6 ± 2.6
308.15 K, x1 = 0.3868	1323.9 ± 0.5	192.1 ± 3
308.15 K, x1 = 0.4761	1337.9 ± 0.5	217.1 ± 3.4
308.15 K, x1 = 0.5771	1349.7 ± 0.5	245.3 ± 3.8
308.15 K, x1 = 0.6617	1357.3 ± 0.5	269 ± 4.2
308.15 K, x1 = 0.8398	1369.1 ± 0.5	320.2 ± 5
308.15 K, x1 = 0.8646	1370.4 ± 0.6	327.5 ± 5.1
313.15 K, x1 = 0.0186	1054.7 ± 0.6	83.2 ± 1.3
313.15 K, x1 = 0.0522	1130 ± 0.5	95 ± 1.5
313.15 K, x1 = 0.0995	1193.9 ± 0.4	110.1 ± 1.7
313.15 K, x1 = 0.2037	1265.8 ± 0.5	141.5 ± 2.2
313.15 K, x1 = 0.2952	1298.7 ± 0.5	167.7 ± 2.6
313.15 K, x1 = 0.3868	1319.6 ± 0.5	193.3 ± 3
313.15 K, x1 = 0.4761	1333.7 ± 0.5	218.5 ± 3.4
313.15 K, x1 = 0.5771	1345.4 ± 0.5	246.9 ± 3.8
313.15 K, x1 = 0.6617	1353.1 ± 0.5	270.8 ± 4.2
313.15 K, x1 = 0.8398	1364.9 ± 0.5	322.1 ± 5
313.15 K, x1 = 0.8646	1366.3 ± 0.5	329.6 ± 5.1
318.15 K, x1 = 0.0186	1052.1 ± 0.5	83.4 ± 1.3
318.15 K, x1 = 0.0522	1126.7 ± 0.5	95.4 ± 1.5
318.15 K, x1 = 0.0995	1190.1 ± 0.4	110.6 ± 1.7
318.15 K, x1 = 0.2037	1261.6 ± 0.5	142.4 ± 2.2
318.15 K, x1 = 0.2952	1294.4 ± 0.5	168.8 ± 2.6
318.15 K, x1 = 0.3868	1315.3 ± 0.5	194.6 ± 3
318.15 K, x1 = 0.4761	1329.4 ± 0.5	220 ± 3.4
318.15 K, x1 = 0.5771	1341.2 ± 0.5	248.5 ± 3.9
318.15 K, x1 = 0.6617	1348.9 ± 0.5	272.6 ± 4.2
318.15 K, x1 = 0.8398	1360.8 ± 0.5	324.2 ± 5
318.15 K, x1 = 0.8646	1362.1 ± 0.5	331.7 ± 5.1

[3]
Details	excess molar enthalpy [kJ/mol]
x1 = 0.1012	0.487 ± 0.012
x1 = 0.1943	0.794 ± 0.018
x1 = 0.2959	0.991 ± 0.022
x1 = 0.4031	1.07 ± 0.023
x1 = 0.4921	1.06 ± 0.023
x1 = 0.5929	0.964 ± 0.021
x1 = 0.6997	0.763 ± 0.017
x1 = 0.7805	0.601 ± 0.014
x1 = 0.844	0.448 ± 0.011
